# Measurements taken from ChEMBL document CHEMBL1154960, “Development of improved inhibitors of wall teichoic acid biosynthesis with potent activity against Staphylococcus aureus” (Bioorg Med Chem Lett, 2010).
# The source made the active and inactive calls. The rule behind the calls is not given here.
# Legend:
# Staphylococcus aureus [1] = test: Antibacterial activity against Staphylococcus aureus RN4220 after 12 hrs by optical density plate reader method; type: functional
# Staphylococcus aureus [2] = test: Antibacterial activity against tarO deficient Staphylococcus aureus RN4220 assessed as growth inhibition at 100 uM after 12 hrs by optical density plate reader method; type: functional; conditions: RN4220, 12 h, read-out: GI
# Staphylococcus aureus [3] = test: Antibacterial activity against Staphylococcus aureus RN4220 assessed as growth inhibition at 100 uM after 12 hrs by optical density plate reader method; type: functional
# Staphylococcus aureus [4] = test: Antibacterial activity against Staphylococcus aureus RN4220 assessed as cell survival at 100 uM after 12 hrs by optical density plate reader method; type: functional; conditions: RN4220, 12 h
# Staphylococcus aureus [5] = test: Antibacterial activity against tarO deficient Staphylococcus aureus RN4220 assessed as cell survival at 100 uM after 12 hrs by optical density plate reader method; type: functional; conditions: RN4220, 12 h
# Staphylococcus aureus [6] = test: Antibacterial activity against methicillin-sensitive Staphylococcus aureus Newman after 12 hrs by optical density plate reader method; type: functional
# Staphylococcus aureus [7] = test: Bacteriostatic activity against Staphylococcus aureus RN4220 assessed as reduction in CFU at 8 times MIC up to 8 hrs by kill curve analysis; type: functional, organism-based
# Staphylococcus aureus [8] = test: Antibacterial activity against methicillin-resistant Staphylococcus aureus COL after 12 hrs by optical density plate reader method; type: functional
# Staphylococcus aureus [9] = test: Antibacterial activity against methicillin-sensitive Staphylococcus aureus RN6390 after 12 hrs by optical density plate reader method; type: functional; conditions: RN6390, 12 h
# Staphylococcus aureus [10] = test: Antibacterial activity against methicillin-resistant Staphylococcus aureus MW2 after 12 hrs by optical density plate reader method; type: functional; conditions: MW2, 12 h
# Staphylococcus aureus [11] = test: Antibacterial activity against tarO deficient Staphylococcus aureus RN4220 after 12 hrs by optical density plate reader method; type: functional; conditions: RN4220, 12 h
# Mus musculus [12] = test: Toxicity in CD1 mouse at 75 mg/kg, iv after 24 hrs; type: organism-based; set-up: dose 75 mg/kg, route intravenous; conditions: in vivo
# Staphylococcus aureus [13] = test: Antibacterial activity against Staphylococcus aureus RN4220 after 12 hrs by optical density plate reader method in presence of 50% fetal bovine serum; type: functional
# Mus musculus [14] = test: Toxicity in CD1 mouse at 100 mg/kg, iv; type: organism-based; set-up: dose 100 mg/kg, route intravenous; conditions: in vivo
# [15] = Staphylococcus aureus, RN4220, 12 h, read-out: MIC
# [16] = Staphylococcus aureus, RN4220, 12 h, read-out: GI
Compound,inhibition of growth at 100 µM (Staphylococcus aureus [2]) [%],inhibition of growth at 100 µM (Staphylococcus aureus [3]; [16]) [%],survival at 100 µM (Staphylococcus aureus [4]) [%],survival at 100 µM (Staphylococcus aureus [5]) [%],further results
CCCCN(CC)c1nc2c(S(=O)(=O)c3ccc(C)cc3)nnn2c2cc(OC)c(OC)cc12,,,,,MIC (Staphylococcus aureus [1]; [15]): 3.1 µM
CCN(CC)c1nc2c(S(=O)(=O)c3ccccc3)nnn2c2cc(C)ccc12,< 30,< 30,,,
CCN(CC)c1nc2c(S(=O)(=O)c3ccccc3)nnn2c2cc(Cl)ccc12,< 30,< 30,,,
CCN(CC)c1nc2c(S(=O)(=O)c3ccccc3)nnn2c2c(Cl)cccc12,< 30,< 30,,,
Cn1c(=O)c2c(-c3ccccc3)n3c(c2n(C)c1=O)C(c1cccc([N+](=O)[O-])c1)Nc1ccccc1-3 (configuration not stated),,,64,74,
CCN(CC)c1nc2c(S(=O)(=O)c3ccccc3)nnn2c2ccc(F)cc12,< 30,> 31,,,
Cn1c(=O)c2c(-c3ccccc3)n3c(c2n(C)c1=O)C(c1ccccc1[N+](=O)[O-])Nc1ccccc1-3 (configuration not stated),,,79,86,
COc1ccc(-c2c3c(=O)n(C)c(=O)n(C)c3c3n2-c2ccccc2NC3c2ccc(OC)cc2)cc1 (configuration not stated),,,93,88,
CCN(c1nc2c(S(=O)(=O)c3ccc(C)cc3)nnn2c2cc(OC)c(OC)cc12)C(C)C,,,,,MIC (Staphylococcus aureus [1]; [15]): 1.6 µM
CCN(CC)c1nc2c(S(=O)(=O)c3ccccc3)nnn2c2ccc(OC)cc12,,,,,MIC (Staphylococcus aureus [1]): 25 µM
CCN(CC)c1nc2c(S(=O)(=O)c3ccccc3)nnn2c2ccc(C)cc12,< 30,,,,MIC (Staphylococcus aureus [1]; [15]): 25 µM
COc1cc2c(N3CCN(c4ccccc4)CC3)nc3c(S(=O)(=O)c4ccc(C)cc4)nnn3c2cc1OC,> 70,> 31,,,
CCN(CC)c1nc2c(S(=O)(=O)c3ccccc3)nnn2c2ccc(Br)cc12,,,,,MIC (Staphylococcus aureus [1]; [15]): 12.5 µM
Cc1ccc(C2Nc3ccccc3-n3c(-c4ccccc4)c4c(=O)n(C)c(=O)n(C)c4c32)o1 (configuration not stated),,,101,110,
COc1cc2c(N3CCc4ccccc4C3)nc3c(S(=O)(=O)c4ccc(C)cc4)nnn3c2cc1OC,> 70,31,,,
CCN(CC)c1nc2c(S(=O)(=O)c3ccccc3)nnn2c2cccc(Cl)c12,< 30,< 30,,,
CCN(CC)c1nc2c(S(=O)(=O)c3ccccc3)nnn2c2ccc([N+](=O)[O-])cc12,,,,,inhibition of growth at 100 µM (Staphylococcus aureus [3]): > 31%
COc1ccc(C2Nc3ccccc3-n3c(-c4ccccc4)c4c(=O)n(C)c(=O)n(C)c4c32)cc1 (configuration not stated),,,37,81,
COc1ccc(O)c(C2Nc3ccccc3-n3c(-c4ccccc4)c4c(=O)n(C)c(=O)n(C)c4c32)c1 (configuration not stated),,,20,40,
CCN(CC)c1nc2c(S(=O)(=O)c3ccccc3)nnn2c2ccc(Cl)cc12,< 30,,,,MIC (Staphylococcus aureus [6]): 12.5 µM; Activity (Staphylococcus aureus [7]): Active; MIC (Staphylococcus aureus [8]): 6.3 µM; MIC (Staphylococcus aureus [1]; [15]): 3.6 µM; MIC (Staphylococcus aureus [9]): 6.3 µM; MIC (Staphylococcus aureus [10]): 6.3 µM

Compound,inhibition of growth at 100 µM (Staphylococcus aureus [2]) [%],inhibition of growth at 100 µM (Staphylococcus aureus [3]; [16]) [%],survival at 100 µM (Staphylococcus aureus [4]) [%],survival at 100 µM (Staphylococcus aureus [5]) [%],further results
CCN(c1nc2c(S(=O)(=O)c3ccc(Cl)cc3)nnn2c2cc(OC)c(OC)cc12)C(C)C,< 30,,,,MIC (Staphylococcus aureus [1]; [15]): 2.5 µM
CCN(CC)c1nc2c(S(=O)(=O)c3ccccc3)nnn2c2cc(OC)c(OC)cc12,< 30,,,,MIC (Staphylococcus aureus [6]): 3.1 µM; MIC (Staphylococcus aureus [8]): 3.1 µM; MIC (Staphylococcus aureus [1]; [15]): 1.8 µM; MIC (Staphylococcus aureus [9]): 3.1 µM; MIC (Staphylococcus aureus [10]): 3.1 µM
Cn1c(=O)c2c(-c3ccccc3)n3c(c2n(C)c1=O)C(c1ccc([N+](=O)[O-])cc1)Nc1ccccc1-3 (configuration not stated),,,49,73,
CCN(CC)c1nc2c(S(=O)(=O)c3ccccc3)nnn2c2cc([N+](=O)[O-])ccc12,,,,,MIC (Staphylococcus aureus [1]; [15]): 100 µM; MIC (Staphylococcus aureus [11]): 50 µM
Cn1c(=O)c2c(-c3ccccc3)n3c(c2n(C)c1=O)C(c1cc(Cl)ccc1O)Nc1ccccc1-3 (configuration not stated),,,35,78,
Cn1c(=O)c2c(-c3ccccc3)n3c(c2n(C)c1=O)C(c1ccc(F)cc1)Nc1ccccc1-3 (configuration not stated),,,26,48,
CCN(CC)c1nc2c(S(=O)(=O)c3ccc(Cl)cc3)nnn2c2cc(OC)c(OC)cc12,< 30,,,,Activity (Mus musculus [12]): Non-toxic; fold change (FC) (Staphylococcus aureus [13]): 8; MIC (Staphylococcus aureus [6]): 0.3 µM; Activity (Mus musculus [14]): Toxic; MIC (Staphylococcus aureus [8]): 0.6 µM; MIC (Staphylococcus aureus [1]; [15]): 0.3 µM; MIC (Staphylococcus aureus [9]): 0.3 µM; MIC (Staphylococcus aureus [10]): 0.6 µM
COc1ccc(-c2c3c(=O)n(C)c(=O)n(C)c3c3n2-c2ccccc2NC3c2ccco2)cc1 (configuration not stated),,,57,69,
Cc1ccc(-c2c3c(=O)n(C)c(=O)n(C)c3c3n2-c2ccccc2NC3c2ccc(C#N)cc2)cc1 (configuration not stated),,,95,81,
CCOCCN(CCOCC)c1nc2c(S(=O)(=O)c3ccc(C)cc3)nnn2c2cc(OC)c(OC)cc12,,31,,,
CCCN(CCOC)c1nc2c(S(=O)(=O)c3ccc(C)cc3)nnn2c2cc(OC)c(OC)cc12,,31,,,
CCN(CC)c1nc2c(S(=O)(=O)c3ccccc3)nnn2c2cc3c(cc12)OCCO3,< 30,< 30,,,
CCCN(CCC)c1nc2c(S(=O)(=O)c3ccc(C)cc3)nnn2c2cc(OC)c(OC)cc12,,,,,MIC (Staphylococcus aureus [1]; [15]): 6.3 µM
CCN(CC)c1nc2c(S(=O)(=O)c3ccccc3)nnn2c2cc(Br)ccc12,,> 31,,,MIC (Staphylococcus aureus [11]): 100 µM
COc1ccccc1C1Nc2ccccc2-n2c(-c3ccccc3)c3c(=O)n(C)c(=O)n(C)c3c21 (configuration not stated),,,85,123,
CCN(CC)c1nc2c(S(=O)(=O)c3ccccc3)nnn2c2cc(OC)ccc12,> 31,> 31,,,
COc1ccc(-c2c3c(=O)n(C)c(=O)n(C)c3c3n2-c2ccccc2NC3c2cc(O)ccc2O)cc1 (configuration not stated),,,0,26,
Cn1c(=O)c2c(-c3ccccc3)n3c(c2n(C)c1=O)C(c1ccco1)Nc1ccccc1-3 (configuration not stated),,,100,98,
CCN(CC)c1nc2c(S(=O)(=O)c3ccc(C)cc3)nnn2c2cc(OC)c(OC)cc12,< 30,,,,MIC (Staphylococcus aureus [1]; [15]): 2.5 µM
COc1cc2c(N3CCCCC3)nc3c(S(=O)(=O)c4ccc(C)cc4)nnn3c2cc1OC,,> 31,,,
